In PMC6520677, “Marine Fungi from the Sponge Grantia compressa: Biodiversity, Chemodiversity, and Biotechnological Potential” (Marine Drugs, 2019):
In brackets after ≈: the same amount, converted by molar mass. Read-outs that look alike come from different tables or passages of the source.

Experiments:
[1] = tested on: Staphylococcus aureus ATCC 29213; experiment: MIC, broth microdilution (CLSI); format: cell-based
[2] = tested on: methicillin-resistant Staphylococcus aureus (MRSA) Monza-PFI; experiment: MIC, broth microdilution (CLSI); format: cell-based
[3] = tested on: fluoroquinolone-resistant S. aureus Monza-FD1; experiment: MIC, broth microdilution (CLSI); format: cell-based, Staphylococcus aureus
[4] = tested on: Enterococcus faecalis ATCC 29212; experiment: MIC, broth microdilution (CLSI); format: cell-based
[5] = tested on: Streptococcus pneumoniae ATCC 49619; experiment: MIC, broth microdilution (CLSI); format: cell-based
[6] = tested on: macrolide-resistant S. pneumoniae Monza-82; experiment: MIC, broth microdilution (CLSI); format: cell-based, Streptococcus pneumoniae; conditions: for sensitivity of the strain to the compound: S. pneumoniae Monza-82
[7] = tested on: Pseudomonas aeruginosa ATCC 27853; experiment: MIC, broth microdilution (CLSI); format: cell-based
[8] = tested on: Escherichia coli ATCC 25922; experiment: MIC, broth microdilution (CLSI); format: cell-based
in vitro [9] = conditions: dog
Description: (§2) African green monkey kidney cells (VERO, ATCC-American Type Culture Collection CCL-81) and Madin Darby Canine Kidney cells (MDCK, ATCC® CRL-2936™) were propagated in Dulbecco’s modified Eagle medium (DMEM; Euroclone), supplemented with 10% fetal bovine serum (FBS; Euroclone), 2 mM L-glutamine, 1 mM sodium pyruvate, 100 U/mL penicillin, and 100 μg/mL streptomycin sulfate.
(§3) The plates were incubated for 48 h at 37 °C, and then 100 μL of CellTiter-Glo reagent (Promega) was added to lyse the cells and to determine cell viability according to the producer’s instructions.

in vitro [10] = conditions: African green monkey
Description: as §2, §3

[11] = tested on: reference strains and multidrug-resistant isolates; experiment: Antibacterial activity, whole panel (MIC); conditions: concentrations tested 0.015–32 μg/mL
Description: (§4) Representatives of Gram-positive and Gram-negative bacteria were selected for the antimicrobial susceptibility tests. Three Gram-positive reference strains (Staphylococcus aureus ATCC 29213, Streptococcus pneumoniae ATCC 49619, and Enterococcus faecalis ATCC 29212) and two Gram-negative reference strains (Escherichia coli ATCC 25922 and Pseudomonas aeruginosa ATCC 27853) were used. Furthermore, antibacterial activity of the isolated compounds was also assessed against recently isolated clinical strains, selected and characterized as resistant or multidrug-resistant (MDR), from the MicroMiB collection owned and maintained by the Laboratory of Clinical Microbiology and Virology of the University of Milano-Bicocca, Monza, Italy: a methicillin-resistant Staphylococcus aureus (MRSA) Monza-PFI, a fluoroquinolone-resistant S. aureus Monza-FD1, and a macrolide-resistant S. pneumoniae Monza-82.
(§5) MICs were determined following Clinical and Laboratory Standards Institute (CLSI) guidelines for the broth microdilution method [33]. […]
(§6) The plates were incubated at 37 °C for 18–24 h. After the incubation, each well was checked for the absence of bacterial pellets and the clearness of the solution; then, the MIC value (μg/mL), defined as the lowest concentration of antimicrobial agent causing visible inhibition of bacterial growth, was determined.

[12] = tested on: Enterococcus faecalis ATCC 29212; experiment: MBC determination (plating of MIC wells); format: cell-based
Description: (§1) Plates were incubated at 37 °C in aerobic conditions or in 5% CO2 atmosphere and checked for bacterial growth after 24 h.

[13] = tested on: Staphylococcus aureus ATCC 29213; experiment: MBC determination (plating of MIC wells); format: cell-based
Description: as §1

[14] = tested on: fluoroquinolone-resistant S. aureus Monza-FD1; experiment: MBC determination (plating of MIC wells); format: cell-based; conditions: Staphylococcus aureus
Description: as §1

[15] = tested on: methicillin-resistant Staphylococcus aureus (MRSA) Monza-PFI; experiment: MBC determination (plating of MIC wells); format: cell-based
Description: as §1

[16] = tested on: macrolide-resistant S. pneumoniae Monza-82; experiment: MBC determination (plating of MIC wells); format: cell-based, Streptococcus pneumoniae; conditions: for MBC: Streptococcus pneumoniae; for bactericidal activity: S. pneumoniae Monza-82 strain only
Description: as §1

bacteria tested = experiment: Bactericidal activity, whole panel (MBC); format: cell-based; conditions: most of the bacteria tested
Description: as §1

[17] = Cytotoxicity assay (CellTiter-Glo); conditions: dog
Description: as §2, §3

MDCK cells = experiment: Cytotoxicity assay (CellTiter-Glo); conditions: MDCK cells, lowest dose 12.5 µg/mL, 48 h
Description: as §2, §3

Gram-positive bacteria = experiment: MIC, summary in text for Gram-positive bacteria; conditions: majority of Gram-positive bacteria tested (except S. pneumoniae ATCC 49619)
Description: as §4, §5, §6

[18] = tested on: influenza A virus strain A/Puerto Rico/8/34 (IAV); experiment: Plaque reduction assay (PRA) on MDCK cells; format: cell-based
[19] = tested on: reference and MRSA S. aureus strains; parameters: method as in PMID 23024574; conditions: low concentration tested; cited from earlier work
S. aureus strains = experiment: MIC, summary in text for S. aureus strains; conditions: Staphylococcus aureus
Description: as §4, §5, §6

[20] = tested on: Mycobacterium tuberculosis; parameters: method as in ref 86 Ganihigama et al.; conditions: ref 86 Ganihigama et al.; cited from earlier work
[21] = tested on: herpes simplex virus 1 (HSV-1) clinical isolate; experiment: Plaque reduction assay (PRA) on VERO cells; format: cell-based; conditions: 48 h p.i.
Micrococcus luteus = tested on: Micrococcus luteus; parameters: method as in PMID 16261521; conditions: cited from earlier work
Klebsiella pneumoniae = tested on: Klebsiella pneumoniae; parameters: method as in PMID 16261521; conditions: cited from earlier work
P. aeruginosa = tested on: P. aeruginosa; parameters: method as in PMID 16261521; conditions: cited from earlier work
bacteria = tested on: bacteria; parameters: method as in ref 20 Zin et al.; conditions: ref 20 Zin et al.; cited from earlier work
[22] = ATCC29213, S. aureus ATCC 29213, read-out: MIC
[23] = S. aureus Monza-PFI (MRSA), read-out: MIC
[24] = Staphylococcus aureus, S. aureus Monza-FD1 (fluoroquinolone-resistant), read-out: MIC
[25] = ATCC29212, E. faecalis ATCC 29212, read-out: MIC
[26] = ATCC49619, S. pneumoniae ATCC 49619, read-out: MIC
[27] = Streptococcus pneumoniae, S. pneumoniae Monza 82 (macrolide-resistant), read-out: MIC
[28] = ATCC27853, P. aeruginosa ATCC 27853, read-out: MIC
[29] = ATCC25922, E. coli ATCC 25922, read-out: MIC
[30] = ATCC29213, S. aureus ATCC 29213, read-out: MBC
[31] = S. aureus Monza-FD1 (fluoroquinolone-resistant), read-out: MBC
[32] = S. aureus Monza-PFI (MRSA), read-out: MBC
[33] = S. pneumoniae Monza 82 (macrolide-resistant), read-out: MBC
[34] = Influenza A virus, MDCK, 48 h, read-out: inhibition of replication of IAV

SMILES	MIC [1, 22]	MIC [2, 23]	MIC [3, 24]	MIC [4, 25]	MIC [5, 26]	MIC [6, 27]	MIC [7, 28]	MIC [8, 29]	MBC [16, 33]	also measured
CCCCCCCc1c(O)cc(CC=C(C)C)c(O)c1C=O [Flavoglaucin (5), flavoglaucin]	> 32 µg/mL	> 32 µg/mL	> 32 µg/mL	> 32 µg/mL	> 32 µg/mL	> 32 µg/mL	> 32 µg/mL	> 32 µg/mL		CC50 at 48 h (in vitro [9]): < 12.5 µg/mL; CC50 at 48 h (in vitro [10]): < 12.5 µg/mL; antibacterial activity [11]: did not show antibacterial activity
C=CC(C)(C)c1[nH]c2c(CC=C(C)C)cc(CC=C(C)C)cc2c1C[C@@H]1NC(=O)[C@H](C)NC1=O [Echinulin (1), echinulin]										MIC ([1]; ATCC29213): > 128 µg/mL; MIC ([2]; MRSA): > 128 µg/mL; MIC ([3]; Staphylococcus aureus): > 128 µg/mL; MIC ([4]; ATCC29212): > 128 µg/mL; MIC ([5]; ATCC49619): > 128 µg/mL; MIC ([6]; Streptococcus pneumoniae): > 128 µg/mL; MIC ([7]; ATCC27853): > 128 µg/mL; MIC ([8]; ATCC25922): > 128 µg/mL
C/C=C/C=C/CCc1c(O)cc(CC=C(C)C)c(O)c1C=O [Isodihydroauroglaucin (6), isodihydroauroglaucin]	64 µg/mL (≈ 213 µM)			64 µg/mL (≈ 213 µM)	> 128 µg/mL		> 128 µg/mL	> 128 µg/mL		MIC ([2]; MRSA): 64 µg/mL (≈ 213 µM); MIC ([3]; Staphylococcus aureus): 32 µg/mL (≈ 107 µM); MIC ([6]; Streptococcus pneumoniae): 4 µg/mL (≈ 13.3 µM); MBC ([12]; ATCC29212): > 128 µg/mL; MBC ([13]; ATCC29213): 128 µg/mL (≈ 426 µM); MBC [14]: 64 µg/mL (≈ 213 µM); MBC ([15]; MRSA): 128 µg/mL (≈ 426 µM); MBC [16]: 16 µg/mL (≈ 53.3 µM); bactericidal activity (bacteria tested): bactericidal activity; CC50 at 48 h [17]: < 12.5 µg/mL; cell toxicity (not toxic = at least 70% cell viability) (MDCK cells): toxic; MIC values range (Gram-positive bacteria): 4 to 64 µg/mL
CCC/C=C/C=C/c1c(O)cc(CC=C(C)C)c(O)c1C=O [Dihydroauroglaucin (4), dihydroauroglaucin]	128 µg/mL (≈ 426 µM)	128 µg/mL (≈ 426 µM)	128 µg/mL (≈ 426 µM)	64 µg/mL (≈ 213 µM)	> 128 µg/mL	8 µg/mL (≈ 26.6 µM)	> 128 µg/mL	> 128 µg/mL	32 µg/mL (≈ 107 µM)	MBC ([12]; ATCC29212, E. faecalis ATCC 29212, read-out: MBC): > 128 µg/mL; MBC [13, 30]: > 128 µg/mL; MBC [14, 31]: > 128 µg/mL; MBC [15, 32]: > 128 µg/mL; bactericidal activity [16]: positive results; inhibition of replication of IAV [18]: completely inhibited; inhibition at 25 µg/mL [18, 34]: 100%; antibacterial activity [19]: inactive; MIC (S. aureus strains): 128 µg/mL (≈ 426 µM)
C[C@@H]1NC(=O)[C@H](Cc2c[nH]c3ccccc23)NC1=O [Cyclo-L-Trp-L-Ala (10), cyclo-L-Trp-L-Ala]	> 128 µg/mL	> 128 µg/mL	> 128 µg/mL	> 128 µg/mL	> 128 µg/mL	> 128 µg/mL	> 128 µg/mL	> 128 µg/mL		
CC(=O)O[C@H]1C[C@@]2(C)[C@@H](C[C@@H](O)[C@H]3[C@@]4(C)CC[C@@H](O)[C@@H](C)[C@@H]4CC[C@@]32C)/C1=C(\CCC=C(C)C)C(=O)O [Fusidic acid, fusidic acid, reference compound]	0.12 µg/mL (≈ 0.232 µM)			4 µg/mL (≈ 7.74 µM)	4 µg/mL (≈ 7.74 µM)					
CN(C)[C@@H]1C(O)=C(C(N)=O)C(=O)[C@@]2(O)C(O)=C3C(=O)c4c(O)cccc4[C@@](C)(O)[C@H]3C[C@@H]12 [Tetracycline, tetracycline, reference compound]	0.12 µg/mL (≈ 0.27 µM)	1 µg/mL (≈ 2.25 µM)	1 µg/mL (≈ 2.25 µM)	8 µg/mL (≈ 18 µM)	0.12 µg/mL (≈ 0.27 µM)	≤ 0.06 µg/mL	8 µg/mL (≈ 18 µM)	1 µg/mL (≈ 2.25 µM)		
COc1cc(O)c2c(c1)C(=O)c1cc(C)c(C(=O)O)c(O)c1C2=O [Cinnalutein (9), cinnalutein]	> 128 µg/mL	> 128 µg/mL	128 µg/mL (≈ 390 µM)	> 128 µg/mL	> 128 µg/mL	32 µg/mL (≈ 97.5 µM)	> 128 µg/mL	> 128 µg/mL	> 128 µg/mL	MIC ([3]; S. aureus Monza-FD1 (fluoroquinolone-resistant)): 128 µg/mL (≈ 390 µM); MIC ([6]; S. pneumoniae Monza 82 (macrolide-resistant)): 32 µg/mL (≈ 97.5 µM); MBC [14, 31]: > 128 µg/mL
COc1cc(O)cc2cc3c(c(O)c12)C(=O)C[C@](C)(O)C3 [Asperflavin (8), asperflavin]	64 µg/mL (≈ 222 µM)	128 µg/mL (≈ 444 µM)	64 µg/mL (≈ 222 µM)	> 128 µg/mL	> 128 µg/mL	32 µg/mL (≈ 111 µM)	> 128 µg/mL	> 128 µg/mL	128 µg/mL (≈ 444 µM)	MBC [13, 30]: > 128 µg/mL; MBC [14, 31]: > 128 µg/mL; MBC [15, 32]: > 128 µg/mL; bactericidal activity [16]: positive results; MIC [20]: 25 µg/mL (≈ 86.7 µM); MIC (S. aureus strains): 64 µg/mL (≈ 222 µM)
COc1cc(O)c2c(c1)C(=O)c1cc(C)cc(O)c1C2=O [Physcion (3), physcion]	> 32 µg/mL	> 32 µg/mL	> 32 µg/mL	> 32 µg/mL	> 32 µg/mL	16 µg/mL (≈ 56.3 µM)	> 32 µg/mL	> 32 µg/mL	> 32 µg/mL	sensitivity of the strain to the compound [6]: showed sensitivity; inhibition at 25 µg/mL [18, 34]: 80%; inhibition at 25 µg/mL ([21]; Human alphaherpesvirus 1, compound at 25 µg/mL, read-out: inhibition of HSV-1 replication): 100%; inhibition of HSV-1 replication ([21]; compound at 25 µg/mL): total inhibition; MIC (Micrococcus luteus): 200 µg/mL (≈ 704 µM); MIC (Klebsiella pneumoniae): 250 µg/mL (≈ 879 µM); MIC (P. aeruginosa): 200 µg/mL (≈ 704 µM); antibacterial activity (bacteria): no antibacterial activity
CC[C@H]1OC(=O)[C@H](C)[C@@H](O[C@H]2C[C@@](C)(OC)[C@@H](O)[C@H](C)O2)[C@H](C)[C@@H](O[C@@H]2O[C@H](C)C[C@H](N(C)C)[C@H]2O)[C@](C)(O)C[C@@H](C)C(=O)[C@H](C)[C@@H](O)[C@]1(C)O [Erythromycin, erythromycin, reference compound]	0.5 µg/mL (≈ 0.681 µM)	8 µg/mL (≈ 10.9 µM)	0.5 µg/mL (≈ 0.681 µM)	2 µg/mL (≈ 2.73 µM)	0.12 µg/mL (≈ 0.164 µM)	16 µg/mL (≈ 21.8 µM)				
CNC(C)C1CCC(N)C(OC2C(N)CC(N)C(OC3OCC(C)(O)C(NC)C3O)C2O)O1 (stereo not shown) [Gentamicin, reference compound]	0.5 µg/mL (≈ 1.05 µM)	> 128 µg/mL	1 µg/mL (≈ 2.09 µM)	> 128 µg/mL			1 µg/mL (≈ 2.09 µM)	0.5 µg/mL (≈ 1.05 µM)		
C=CC(C)(C)c1[nH]c2cc(CC=C(C)C)ccc2c1/C=C1\NC(=O)[C@H](C)NC1=O [Neoechinulin D (7), neoechinulin D]	> 128 µg/mL	> 128 µg/mL	> 128 µg/mL	> 128 µg/mL	> 128 µg/mL	64 µg/mL (≈ 163 µM)	> 128 µg/mL	> 128 µg/mL	> 128 µg/mL	sensitivity of the strain to the compound [6]: showed sensitivity; inhibition at 50 µg/mL [18, 34]: 70%; inhibition at 50 µg/mL ([21]; Human alphaherpesvirus 1, compound at 50 µg/mL, read-out: inhibition of HSV-1 replication): 100%; inhibition of HSV-1 replication ([21]; compound at 50 µg/mL): total inhibition
